The values that follow come from patent US20180000085A1, “USE OF PICOLINAMIDE COMPOUNDS WITH FUNGICIDAL ACTIVITY” (DOW AGROSCIENCES LLC, priority 2014, published 2018).

In one experiment the test system is Zymoseptoria tritici. Description: Leaf blotch of wheat (SEPTTR) disease control on wheat seedlings. The format is in vivo. The arrangement: key to SEPTTR 1DP, HV activity at 100 ppm (% control rating) / SEPTTR 3DC, HV activity at 100 ppm (% control rating) / SEPTTR disease control, 1DP / SEPTTR disease control, 3DC / SEPTTR 1DP disease control rating, HV activity / SEPTTR 3DC disease control rating, HV activity / SEPTTR 3DC, LV activity at 125.1 g/H (% Control rating) / SEPTTR 1DP, LV activity at 125.1 g/H (% Control rating) / SEPTTR 1DP disease control rating, LV activity at 125.1 g/H / SEPTTR 3DC disease control rating, LV activity at 125.1 g/H / SEPTTR 3DC disease control rating, HV activity at 100 ppm / SEPTTR 1DP disease control rating, HV activity at 100 ppm / HV activity at 100 ppm SEPTTR 3DC (disease control rating) / HV activity at 100 ppm SEPTTR 1DP (disease control rating) / LV activity at 125.1 g/H SEPTTR 1DP (disease control rating) / LV activity at 125.1 g/H SEPTTR 3DC (disease control rating): A: > 80; B: ≤ 80; C: Not Tested; D: No Activity Observed in the Reported Assay. The note with it: for SEPTTR 1DP disease control rating, HV activity at 100 ppm / SEPTTR 3DC disease control rating, HV activity at 100 ppm: high volume application.

Another experiment deals with Puccinia triticina. Description: Wheat brown rust (PUCCRT) disease control on wheat seedlings. Type of experiment: in vivo. The settings on record: for PUCCRT 1DP disease control rating, HV activity at 100 ppm / PUCCRT 3DC disease control rating, HV activity at 100 ppm: high volume application.
Setting [1] is: low volume application, 125.1 g/H, 1 day protectant.
The mark [2] stands for this setting: low volume application, 125.1 g/H, 3 day curative.
Where [3] appears, read: low volume application, 125.1 g/H, 1 Day Protectant.
[4] abbreviates: low volume application, 125.1 g/H, 3 Day Curative.

Turning to `CCC(CC)C(Oc1cc(F)cc(Cl)c1)C(C)OC(=O)C(C)NC(=O)c1nccc(OC)c1OC(C)=O` (stereo not shown) [Cmpd 677], in the experiment on Zymoseptoria tritici (setting [1]), the “SEPTTR 1DP disease control rating, LV activity at 125.1 g/H” value was “B (≤ 80)”. In addition, the “SEPTTR 3DC disease control rating, LV activity at 125.1 g/H” value in the experiment with Zymoseptoria tritici (setting [2]) is on record as “B (≤ 80)”. Besides, the “PUCCRT 1DP disease control rating, LV activity at 125.1 g/H” value in the experiment on Puccinia triticina (setting [1]) is on record as “B (≤ 80)”. Further, the “PUCCRT 3DC disease control rating, LV activity at 125.1 g/H” value in the experiment on Puccinia triticina (setting [2]) was “B (≤ 80)”.

Turning to `COc1ccnc(C(=O)N[C@H](C(=O)O[C@@H](C)[C@H](Oc2ccccc2)C(C)C)C(C)C)c1O` [Cmpd 811], in the experiment on Zymoseptoria tritici (1 day protectant), the “SEPTTR 1DP disease control rating, HV activity at 100 ppm” value was “B (≤ 80)”. Further, the “SEPTTR 3DC disease control rating, HV activity at 100 ppm” value with Zymoseptoria tritici (3 day curative) is reported as “B (≤ 80)”. The “PUCCRT 1DP disease control rating, HV activity at 100 ppm” value in the experiment on Puccinia triticina (1 day protectant) is “A (> 80)”. In addition, the “PUCCRT 3DC disease control rating, HV activity at 100 ppm” value in the experiment with Puccinia triticina (3 day curative) was “A (> 80)”.

Regarding `COc1ccnc(C(=O)N[C@@H](C)C(=O)O[C@@H](C)[C@H](Oc2ccc(-c3ccccc3)cc2)C(C)C)c1OCOC(C)=O` [Cmpd 612], the “SEPTTR 1DP, LV activity at 125.1 g/H (% Control rating)” value (shortened to “SEPTTR 1DP … (% Control rating)”) in the experiment on Zymoseptoria tritici (setting [3]) is “D”. For the same compound, in the experiment on Zymoseptoria tritici (setting [4]), the “SEPTTR 3DC, LV activity at 125.1 g/H (% Control rating)” value (shortened to “SEPTTR 3DC … (% Control rating)”) is “B (≤ 80)”. Besides, in the experiment with Puccinia triticina (setting [3]), the “PUCCRT 1DP, LV activity at 125.1 g/H (% Control rating)” value (shortened to “PUCCRT 1DP … (% Control rating)”) was “A (> 80)”. Further, the “PUCCRT 3DC, LV activity at 125.1 g/H (% Control rating)” value (shortened to “PUCCRT 3DC … (% Control rating)”) in the experiment on Puccinia triticina (setting [4]) was “B (≤ 80)”.

Regarding `COc1ccnc(C(=O)NC(C)C(=O)OC(C)C(Oc2ccccc2)c2ccc(-c3ccccc3)cc2)c1O` (stereo not shown) [Cmpd 833], in the experiment with Zymoseptoria tritici (1 day protectant), the “SEPTTR 1DP disease control rating, HV activity at 100 ppm” value is listed as “A (> 80)”. Also, the “SEPTTR 3DC disease control rating, HV activity at 100 ppm” value in the experiment on Zymoseptoria tritici (3 day curative) is “B (≤ 80)”. For the same compound, the “PUCCRT 1DP disease control rating, HV activity at 100 ppm” value in the experiment on Puccinia triticina (1 day protectant) is listed as “A (> 80)”. Besides, in the experiment on Puccinia triticina (3 day curative), the “PUCCRT 3DC disease control rating, HV activity at 100 ppm” value was “B (≤ 80)”.

With `COc1ccnc(C(=O)N[C@@H](C)C(=O)O[C@@H](C)[C@@H](COc2ccccc2)Oc2ccccc2)c1OC(C)=O` [Cmpd 488], the “SEPTTR 1DP … (% Control rating)” value with Zymoseptoria tritici (setting [3]) is “A (> 80)”. The “SEPTTR 3DC … (% Control rating)” value with Zymoseptoria tritici (setting [4]) is reported as “B (≤ 80)”. For the same compound, the “PUCCRT 1DP … (% Control rating)” value with Puccinia triticina (setting [3]) is “A (> 80)”. Moreover, the “PUCCRT 3DC … (% Control rating)” value in the experiment with Puccinia triticina (setting [4]) is reported as “A (> 80)”.

Take `CC[C@H](NC(=O)c1nccc(OC)c1O)C(=O)O[C@@H](C)[C@H](Oc1ccccc1)C(C)C` [Cmpd 810]: the “SEPTTR 1DP disease control rating, HV activity at 100 ppm” value with Zymoseptoria tritici (1 day protectant) is “A (> 80)”. For the same compound, the “SEPTTR 3DC disease control rating, HV activity at 100 ppm” value with Zymoseptoria tritici (3 day curative) is reported as “A (> 80)”. The “PUCCRT 1DP disease control rating, HV activity at 100 ppm” value with Puccinia triticina (1 day protectant) was “A (> 80)”. Further, in the experiment with Puccinia triticina (3 day curative), the “PUCCRT 3DC disease control rating, HV activity at 100 ppm” value was “A (> 80)”.

As to `CCC(CC)[C@@H](OCC1CC1)[C@H](C)OC(=O)[C@H](C)NC(=O)c1nccc(OC)c1OC(C)=O` [Cmpd 555], the “SEPTTR 1DP … (% Control rating)” value in the experiment with Zymoseptoria tritici (setting [3]) was “B (≤ 80)”. Also, the “SEPTTR 3DC … (% Control rating)” value in the experiment on Zymoseptoria tritici (setting [4]) is “A (> 80)”. The “PUCCRT 1DP … (% Control rating)” value in the experiment with Puccinia triticina (setting [3]) is listed as “A (> 80)”. Moreover, the “PUCCRT 3DC … (% Control rating)” value in the experiment on Puccinia triticina (setting [4]) is on record as “A (> 80)”.

Take `CC[C@H](Cc1ccc(F)cc1)[C@@H](Oc1ccccc1)[C@H](C)OC(=O)[C@H](C)NC(=O)c1nccc(OC)c1OC(C)=O` [Cmpd 469]: in the experiment on Zymoseptoria tritici (setting [3]), the “SEPTTR 1DP … (% Control rating)” value is recorded as “A (> 80)”. In the experiment with Zymoseptoria tritici (setting [4]), the “SEPTTR 3DC … (% Control rating)” value is recorded as “A (> 80)”. Moreover, in the experiment on Puccinia triticina (setting [3]), the “PUCCRT 1DP … (% Control rating)” value was “A (> 80)”. For the same compound, the “PUCCRT 3DC … (% Control rating)” value with Puccinia triticina (setting [4]) was “A (> 80)”.

With `CCC(CC)[C@@H](Oc1ccc(F)cc1)[C@H](C)OC(=O)[C@@H](NC(=O)c1nccc(OC)c1OC(C)=O)C(C)C` [Cmpd 657], the “SEPTTR 1DP … (% Control rating)” value in the experiment with Zymoseptoria tritici (setting [3]) is listed as “A (> 80)”. Moreover, the “SEPTTR 3DC … (% Control rating)” value in the experiment with Zymoseptoria tritici (setting [4]) is “B (≤ 80)”. The “PUCCRT 1DP … (% Control rating)” value in the experiment with Puccinia triticina (setting [3]) is on record as “A (> 80)”. Besides, the “PUCCRT 3DC … (% Control rating)” value with Puccinia triticina (setting [4]) is “B (≤ 80)”.

As for `CCCOC[C@@H](Oc1ccccc1)[C@H](C)OC(=O)[C@H](CC)NC(=O)c1nccc(OC)c1O` [Cmpd 314], the “SEPTTR 1DP disease control rating, HV activity” value in the experiment on Zymoseptoria tritici (HV application at 100 ppm, 1 Day Protectant, wheat leaf blotch) was “B (≤ 80)”. In the experiment with Zymoseptoria tritici (HV application at 100 ppm, 3 Day Curative, wheat leaf blotch), the “SEPTTR 3DC disease control rating, HV activity” value is listed as “D”. For the same compound, the “PUCCRT 1DP disease control rating, HV activity” value in the experiment on Puccinia triticina (HV application at 100 ppm, 1 Day Protectant, wheat brown rust) is reported as “A (> 80)”. The “PUCCRT 3DC disease control rating, HV activity” value in the experiment on Puccinia triticina (HV application at 100 ppm, 3 Day Curative, wheat brown rust) was “B (≤ 80)”.
